Columns and labels:
[1] = system: CD34+/CD38- leukemia stem cells from CML patients; assay: Annexin V-FITC/PI apoptosis in CD34+/CD38- subpopulation; assay type: cell-based, human; conditions: 2.5 or 5 µM, within 24 h, 3 patients; dose dependent
Method: Pre-cultured cells were treated with BK124.1 or DMSO for 24 h. For purity analysis, cells were stained with anti-human CD34-APC antibody, anti-human CD38-PE (Biolegend, San Diego, CA, USA), and propidium iodide according to the manufacturers’ protocols. For apoptosis analysis, cells were additionally stained with Annexin V-FITC kit (BD, Franklin Lakes, NJ, USA) according to the manufacturer’s protocol. Appropriate isotype controls were included. Stained cells were immediately analyzed on a BD LSRFortessa flow cytometer with FlowJo software (BD, Franklin Lakes, NJ, USA), after exclusion of doublets. Purity was analyzed on live cells only, and apoptosis separately for each population of cells (CD34^+/CD38^+ or CD34^+/CD38^−).
[…] Next, we isolated CD34+ cells (EasySep™ Human CD34 Positive Selection Kit II, StemCell Technologies, Vancouver, Canada), counted them and assessed viability with Muse Cell Analyzer (Merck Millipore, Burlington, MA, USA). […] The purity of the live CD34+ fraction was assessed by flow cytometry with anti-human CD34-APC antibody, compared with an appropriate isotype control (Biolegend, San Diego, CA, USA), and propidium iodide (Sigma-Aldrich, St. Louis, MO, USA). […]
[…] In both cases stained cells were immediately analyzed on a BD LSRFortessa flow cytometer and analyzed with FlowJo software (BD, Franklin Lakes, NJ, USA). […]

K562-MDR1 cells = assay: Annexin V-FITC/PI apoptosis measurement, K562-MDR1; assay type: cell-based, human; conditions: 5 µM, 24 h
Method: Cells were seeded in 6-well plates (K562 or K562-MDR1) or in 24-well plates (CD34^+ cells). After 24 h, BK124.1 or DMSO was added. After a further 24 h, cells were stained using the Annexin V-FITC kit for the detection of apoptosis (BD, Franklin Lakes, NJ, USA) and immediately analyzed on a BD FACSCalibur using CellQuest software (BD, Franklin Lakes, NJ, USA). […]
incubated overnight at 37 °C and analyzed using an iMark Microp late absorbance reader (Bio-Rad, Hercules, CA, USA). Results were calculated relative to control cells treated with DMSO only.
[…] CD34+ cells were plated at a concentration of 2.5 × 10^5 cells/mL in a 24-well plate. […] A f t e r a further 24 hours, cells were harvested and stained according to the manufacturer's protocol using the Annexin V-FITC kit for the detection of apoptosis (BD, Franklin Lakes, NJ, USA). Stained cells were immediately analyzed on a BD FACSCalibur using CellQuest softwa re (BD, Franklin Lakes, NJ, USA).
Cells were seeded at a concentration of 1-2 × 10^5 cells/mL in a 6-well plate. After 24 hours of pre-incubation, BK124.1 in DMSO was added to the cells (vDMSO/vmedium), and incubated for 24 or 48 hours.
After incubation, cells were washed twice with ice-cold PBS (Mg2+ and Ca2+-free), resuspended in ice-cold 70% ethanol, and placed at -20 °C for 24 hours. […]
Flow cytometry analysis of CD243 (P-glycoprotein) […]

K562 cells = system: K562 cells; set-up: method as in PMID 26902600, PMID 31487824; conditions: chronic myelogenous (CML) K562 cells from blast crisis; cited from earlier work
[2] = Toxicity in Balb/c nude mice; assay type: in vivo
Method: […] The compound blood concentration was measured 15 min, 6, 12, and 24 h post-injection. For each time point, 4 mice were sacrificed. BK124.1 concentration in the bloodstream was analyzed using mass spectrometry. Toxicology was assessed by examining physiological and morphological changes at the injection site, the appearance of internal organs (liver, heart, kidneys, and spleen), blood tests, body mass, and animal behavior.

## CCC12C(=O)C(CC)(C(c3ccccc3)=C1c1ccccc1)C1C(=O)N(CC(O)CNC(C)C)C(=O)C12 (centres unmarked) [BK124.1, 4-[2-hydroxy-3-(propan-2-ylamino)propyl]-1,7-diethyl-8,9-diphenyl-4-azatricyclo [5.2.1.02,6]dec-8-ene-3,5,10-trione]
[1]
  Apoptosis in CD34+/CD38- leukemia stem cells: induced apoptosis
K562-MDR1 cells
  Apoptosis: 30.1%
K562 cells
  Toxicity towards human leukemia cells: selectively toxic
[2]; IP 40 mg/kg
  Toxic effects in weight and internal organs' appearance: some minor toxic effects
[2]; intravenous administration
  Toxicity at the injection site: some signs of local toxicity in the tail

— publication PMC9332833 (Cancers, 2022)
